Test results published in US20090298875A1, “A Combination of Compounds, Which Can be Used in the Treatment of Respiratory Diseases, Especially Chronic Obstructive Pulmonary Disease (COPD) and Asthma” (ASTRAZENECA AB, priority 2005, published 2009).

Assay: Estimated solubility of the salt in organic solvents
Type: physicochemical
Procedure: (b) The Form B salt described in (a) above was also prepared by dissolving, in a vial, 20% w of a sample of the benzoate salt prepared by the method of Example 1(b) (Form A) in a solvent such as methanol (>20 mg/ml), ethanol (>20 mg/ml), n-propanol (>20 mg/ml), isopropanol (8.5 mg/ml) or acetone (9.6 mg/ml). The figures in brackets indicate the estimated solubility of the salt in these solvents. The vial was then sealed and the suspension was homogenised at ambient temperature (20° C.) using a magnet. Stirring and temperature were maintained for a period of at least 7 days after which time a sample of the material obtained was dried and tested by XRPD. XRPD confirmed that there had been complete transformation of Form A to Form B.
(a) Form B was prepared by dissolving, in a vial, 20% w of a sample of the furoate salt prepared by the method of Example 1(b) (Form A) in a solvent such as ethanol (16 mg/ml) or 2-butanol (8 mg/ml). The figures in brackets indicate the estimated solubility of the salt in these solvents. The vial was then sealed and the suspension was homogenised at ambient temperature (20° C.) using a magnet. Stirring and temperature were maintained for a period of at least 7 days after which time a sample of the material obtained was dried and tested by XRPD. XRPD confirmed that there had been complete transformation of Form A to Form B.

estimated solubility of the salt (acetone) [mg/mL] | estimated solubility of the salt (ethanol) [mg/mL] | estimated solubility of the salt (isopropanol) [mg/mL] | estimated solubility of the salt (methanol) [mg/mL] | estimated solubility of the salt (n-propanol) [mg/mL] | estimated solubility of the salt (2-butanol) [mg/mL] | Structure (SMILES)
9.6 | > 20 | 8.5 | > 20 | > 20 |  | CC(=O)Nc1ccc(O)cc1OC[C@@](C)(O)CNC1CCN(Cc2ccc(Cl)cc2)CC1.O=C(O)c1ccccc1 [Example 1(b), N-{2-[((2S)-3-{[1-(4chlorobenzyl)piperidin-4-yl]amino}-2-hydroxy-2-methylpropyl)oxy]-4-hydroxyphenyl}acetamide benzoate (1:1 Salt), Form A]
 | 16 |  |  |  | 8 | CC(=O)Nc1ccc(O)cc1OC[C@@](C)(O)CNC1CCN(Cc2ccc(Cl)cc2)CC1.O=C(O)c1ccco1 [1(c), N-{2-[((2S)-3-{[1-(4-chlorobenzyl)piperidin-4-yl]amino}-2-hydroxy-2-methylpropyl)oxy]-4-hydroxyphenyl}acetamide furoate (1:1 Salt), Form A]
